Measured values as given in article PMC4524497 (Bioorganic & medicinal chemistry, 2015).

Key:
VAChT = details: brain of both NHP and human subjects; cited from earlier work
σ2 receptor = target: T1, σ2 receptor (Rattus norvegicus, UniProt Q5U3Y7); test: σ2 receptor binding assay with [^3H]DTG in the presence of; details: for Ki: Ki-σ2, [^3H]DTG + 1 μM (+)-pentazocine, rat liver membranes, mean ± SEM
T1 sequence (Q5U3Y7 1-176): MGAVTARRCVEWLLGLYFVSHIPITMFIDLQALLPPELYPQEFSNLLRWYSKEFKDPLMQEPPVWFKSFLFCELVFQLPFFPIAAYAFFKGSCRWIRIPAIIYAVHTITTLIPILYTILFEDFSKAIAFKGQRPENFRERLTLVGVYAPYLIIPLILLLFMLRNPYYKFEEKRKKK

human VAChT = target: T2, human VAChT (Homo sapiens, UniProt Q16572); test: VAChT competitive binding assay with [^3H]vesamicol
T2 sequence (Q16572 1-532): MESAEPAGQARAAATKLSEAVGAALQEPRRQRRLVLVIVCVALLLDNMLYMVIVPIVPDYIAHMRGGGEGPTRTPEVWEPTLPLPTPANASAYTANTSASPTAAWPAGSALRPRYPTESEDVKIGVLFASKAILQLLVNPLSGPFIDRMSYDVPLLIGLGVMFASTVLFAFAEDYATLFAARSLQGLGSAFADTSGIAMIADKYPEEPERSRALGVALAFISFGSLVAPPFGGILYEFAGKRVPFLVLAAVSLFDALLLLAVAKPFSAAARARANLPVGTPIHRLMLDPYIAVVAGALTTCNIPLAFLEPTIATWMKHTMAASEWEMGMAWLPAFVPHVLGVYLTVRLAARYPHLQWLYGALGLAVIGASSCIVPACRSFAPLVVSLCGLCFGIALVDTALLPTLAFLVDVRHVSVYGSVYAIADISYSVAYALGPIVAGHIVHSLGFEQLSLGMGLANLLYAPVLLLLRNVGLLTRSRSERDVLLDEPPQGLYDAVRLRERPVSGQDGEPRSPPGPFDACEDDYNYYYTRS

[1] = post-injection, human brain SPECT; cited from earlier work

## O[C@@H]1Cc2cccc(OCC[18F])c2C[C@H]1N1CCC(c2ccccc2)CC1 [[^18F]FEOBV, [^18F]fluoroethoxy-benzovesamicol]
VAChT
  delayed equilibrium of brain kinetics: > 360 min p.i.

## O=C(c1ccc(F)cc1)C1CCN(C2Cc3c(cccc3OCCF)CC2O)CC1 (single isomer, unassigned; (-)) [(-)-18a, (-)-(1-(8-(2-Fluoroethoxy)-3-hydroxy-1,2,3,4-tetrahydronaphthalen-2-yl)piperidin-4-yl)(4-fluorophen-yl)-methanone]
σ2 receptor
  Ki: > 10 µM
σ2 receptor; selectivity ratio
  VAChT/ σ2: >10,000
Human VAChT
  selectivity for VAChT versus σ receptors: > 10,000 fold

## OC1Cc2cccc([123I])c2CC1N1CCC(c2ccccc2)CC1 (single isomer, unassigned; (-)) [[^123I]IBVM, (-)-5-[^123I]iodo-benzovesamicol]
[1]
  time required for quantification of peak uptake in the target regions: at least 6 hr

## O=C(c1ccc(F)cc1)C1CCN(C2Cc3c(cccc3OCCF)CC2O)CC1 (racemic) [Compound 18a, (1-(8-(2-Fluoroethoxy)-3-hydroxy-1,2,3,4-tetrahydronaphthalen-2-yl)piperidin-4-yl)(4-fluorophenyl)methanone]
σ2 receptor
  Ki: > 10 µM
